Laboratory results as given in EP2808337A1, “(E)-3-Aryl-3-oxoprop-1-enyl-2-phosphonic acid and its derivatives, methods for their preparation and their use” (Centrum Badan Molekularnych I Makromolekularnych Pan, priority 2013, dated 2014).

Key:
[1] = test system: DNA plasmid pcDNA 3.1 HisC (8.2 kb); assay: Digestion of plasmid DNA with restriction enzyme Bam H1 after incubation with compounds (agarose gel electrophoresis); format: biochemical; settings: compound 2 or 20 µM, overnight at 37°C with 0.6 µg plasmid, then BamH1 2U/sample for 3 hours at 37°C; gel not shown
Description: The impact of compounds 1a and 1b has been tested on the digestion of DNA plasmid pcDNA 3.1 HisC (8.2 kb) with restriction enzyme Bam H1.
1. For this purpose, pcDNA 3.1 HisC plasmid DNA (0.6 µg) was dissolved in 1×BamH1 buffer and incubated overnight at 37°C with the following reference or test compounds:
The concentration of the reference and test compounds in each sample was 2 or 20 µM.
2. After overnight incubation, the reaction mixture was digested with BamH1 restriction enzyme (2U/sample) for 3 hours at 37°C. The total volume of the samples was 10 µL.
3. The reaction products were applied on 1% agarose gel and electrophoresis was performed in TAE buffer.

[2] = test system: synthetic DNA duplex (23 nt- 5'TCTTCAAGAATTCAGGTCCTGAT 3'); assay: Circular dichroism (CD) spectra of synthetic DNA duplex with test compounds; format: binding; settings: immediately after addition; DNA duplex 2µM, compound 20µM, DMSO 0.2%, PBS, 23°C, 200-320 nm; Figure 1
Description: The ability of the test compounds 1a and 1b to interact with DNA was tested by the circular dichroism (CD) technique.
1. For this purpose, samples were prepared in PBS buffer containing: […] of synthetic DNA duplex (23 nt- 5'TCTTCAAGAATTCAGGTCCTGAT 3') or DNA of bovine thymus (0.2 mg/ml) and test compounds at a concentration of 20µM or 40µM for synthetic DNA duplex sample and thymus DNA sample, respectively. The samples contained 0.2% or 0.4% DMSO (for synthetic DNA duplex sample and thymus DNA sample, respectively), which is a solvent of the test compounds.
2. CD spectra (in the range from 200 nm to 320 nm) were recorded immediately after addition of the test compounds as well as after 1.5 h incubation. The measurement was carried out at 23°C in a quartz cuvette (optical path length 0.5 cm) using a spectroscope CD6 (Jobin-Yvon, France).
3. CD spectra of DNA incubated with the test compounds were compared with the control spectrum (spectrum was recorded for a sample of DNA (2µM or 0.2 mg/ml) in the presence of DMSO (final concentration of 0.2% or 0.4%).

## COc1cccc2c1C(=O)c1c(O)c3c(c(O)c1C2=O)C[C@@](O)(C(C)=O)C[C@@H]3O[C@H]1C[C@H](N)[C@H](O)[C@H](C)O1 [Daunorubicin, reference compound]
[1]
  interaction with plasmid DNA: resistance to digestion by the endonucleolytic enzyme Bam H1: increasing its resistance to digestion
[2]
  changes of CD spectrum of duplex DNA compared to control (duplex DNA + DMSO): changing significantly its structure

## COP(=O)(OC)/C(=C/c1ccc2ccc3cccc4ccc1c2c34)C(=O)c1ccc2c(c1)OCO2 [compound 1a]
[1]
  interaction with plasmid DNA: resistance to digestion by the endonucleolytic enzyme Bam H1: increasing its resistance to digestion
[2]
  changes of CD spectrum of duplex DNA compared to control (duplex DNA + DMSO): changes compared to the control sample

## O=C(/C(=C/c1ccc2ccc3cccc4ccc1c2c34)P(=O)(O)O)c1ccc2c(c1)OCO2 [compound 1b, (Z)-3-(benzo[d][1,3]dioxol-5-yl)-1-(pyrene-1-yl)-3-oxoprop-1-en-2-ylphosphonic acid]
[1]
  interaction with plasmid DNA: resistance to digestion by the endonucleolytic enzyme Bam H1: increasing its resistance to digestion
[2]
  changes of CD spectrum of duplex DNA compared to control (duplex DNA + DMSO): changes compared to the control sample
